Source: ChEMBL document CHEMBL4376898, “Enhanced Activity against Multidrug-Resistant Bacteria through Coapplication of an Analogue of Tachyplesin I and an Inhibitor of the QseC/B Signaling Pathway” (J Med Chem, 2020)
Values after ≈ are worked out from the molar mass of the structure shown. Active and inactive are the calls of the source. No cut-off for these calls is given here.

Experiments:
Enterococcus faecium [1] = assay: Antimicrobial activity against Enterococcus […] ATCC 29212 assessed as inhibition of visible growth incubated for 18 hrs; format: functional
Escherichia coli [2] = assay: Antimicrobial activity against Escherichia coli ATCC 25923 assessed as inhibition of visible growth incubated for 18 hrs; format: functional
Escherichia coli [3] = assay: Antimicrobial activity against Escherichia coli BAA 2469 assessed as inhibition of visible growth incubated for 18 hrs; format: functional
Staphylococcus aureus [4] = assay: Antimicrobial activity against Staphylococcus aureus BAA 41 assessed as inhibition of visible growth incubated for 18 hrs; format: functional
Staphylococcus aureus [5] = assay: Antimicrobial activity against Staphylococcus aureus ATCC 29213 assessed as inhibition of visible growth incubated for 18 hrs; format: functional
Acinetobacter baumannii [6] = assay: Antimicrobial activity against Acinetobacter baumannii ATCC 19606 assessed as inhibition of visible growth incubated for 18 hrs; format: functional
Staphylococcus aureus [7] = assay: Antimicrobial activity against Staphylococcus aureus BAA 44 assessed as inhibition of visible growth incubated for 18 hrs; format: functional
Klebsiella pneumoniae [8] = assay: Antimicrobial activity against Klebsiella pneumoniae BAA 2470 assessed as inhibition of visible growth incubated for 18 hrs; format: functional
Escherichia coli [9] = assay: Antimicrobial activity against Escherichia coli K-12 assessed as inhibition of visible growth incubated for 18 hrs; format: functional
Klebsiella pneumoniae [10] = assay: Antimicrobial activity against Klebsiella pneumoniae BAA 1144 assessed as inhibition of visible growth incubated for 18 hrs; format: functional
Pseudomonas aeruginosa [11] = assay: Antimicrobial activity against Pseudomonas aeruginosa BAA 2108 assessed as inhibition of visible growth incubated for 18 hrs; format: functional
Enterobacter cloacae = assay: Antimicrobial activity against Enterobacter cloacae BAA 1143 assessed as inhibition of visible growth incubated for 18 hrs; format: functional
Bacillus subtilis [12] = assay: Antimicrobial activity against Bacillus subtilis 168 assessed as inhibition of visible growth incubated for 18 hrs; format: functional
Pseudomonas aeruginosa [13] = assay: Antimicrobial activity against Pseudomonas aeruginosa ATCC 27853 assessed as inhibition of visible growth incubated for 18 hrs; format: functional
Erythrocyte [14] = assay: Toxicity in human erythrocytes assessed as induction of hemolysis at <50 ug/ml incubated for 1 hr by spectrometry; format: cell-based
[15] = Bactericidal activity against Lysobacter enzymogenes YC36; format: functional
L02 [16] = assay: Cytotoxicity in human L02 cells assessed as reduction in cell viability at >64 ug/ml incubated for 48 hrs by resazurin dye based assay; settings: l02, 48 h
Lysobacter enzymogenes [17] = assay: Antimicrobial activity against Lysobacter enzymogenes YC36 assessed as inhibition of visible growth incubated for 18 hrs; format: functional
Enterococcus faecium [18] = assay: Bactericidal activity against Enterococcus […] ATCC 29212; format: functional
[19] = Antimicrobial activity against Lysobacter enzymogenes YC36 assessed as inhibition of visible growth measured after 7th generation exposure to compound by continuous repeated transfer assay relative to before passage; format: functional
Lysobacter enzymogenes [20] = assay: Bactericidal activity against Lysobacter enzymogenes YC36 at 4 ug/ml; format: functional
[21] = Stability in human plasma assessed as parent compound degradation at […] measured after 6 hrs by HPLC analysis; format: ADME, cell-free; settings: read-out: Drug degradation
Pseudomonas aeruginosa [22] = assay: Bactericidal activity against Pseudomonas aeruginosa ATCC 27853; format: functional
[23] = Stability in human plasma assessed as parent compound remaining at […] measured after 2 hrs by HPLC analysis; format: ADME, cell-free; settings: read-out: Stability
Shigella flexneri = assay: Bactericidal activity against Shigella flexneri ATCC 29903; format: functional
Acinetobacter baumannii [24] = assay: Bactericidal activity against Acinetobacter baumannii ATCC 19606; format: functional; settings: ATCC 19606 = CIP 70.34 = JCM 6841
Erythrocyte [25] = assay: Toxicity in human erythrocytes assessed as induction of hemolysis incubated for 1 hr by spectrometry; format: cell-based
Bacillus subtilis [26] = assay: Bactericidal activity against Bacillus subtilis 168; format: functional
Staphylococcus aureus [27] = assay: Bactericidal activity against Staphylococcus aureus ATCC 29213; format: functional
Erythrocyte [28] = assay: Toxicity in human erythrocytes assessed as induction of hemolysis incubated for 1 hr by visual absorption spectroscopy; format: cell-based
L02 [29] = assay: Cytotoxicity in human L02 cells assessed as reduction in cell viability at <32 ug/ml incubated for 48 hrs by resazurin dye based assay; settings: l02, 48 h
Escherichia coli [30] = assay: Bactericidal activity against Escherichia coli K-12; format: functional
Lysobacter enzymogenes [31] = assay: Induction of drug efflux pumps gene expression in Lysobacter enzymogenes YC36 with delta qseB mutant at 2 ug/ml by genome-wide transcription profiling assay; format: functional
Lysobacter enzymogenes [32] = assay: Induction of drug efflux pumps gene expression in Lysobacter enzymogenes YC36 assessed as increase in czcB expression at 2 ug/ml by genome-wide transcription profiling assay; format: functional
Lysobacter enzymogenes [33] = assay: Bactericidal activity against Lysobacter enzymogenes YC36 with delta qseB mutant; format: functional
Lysobacter enzymogenes [34] = assay: Induction of drug efflux pumps gene expression in Lysobacter enzymogenes YC36 assessed as increase in nodT expression at 2 ug/ml by genome-wide transcription profiling assay; format: functional
Lysobacter enzymogenes [35] = assay: Induction of bacterial cell membrane leakage in Lysobacter enzymogenes YC36 assessed as induction of serious depressions with leakage of intracellular contents surrounding bacteria by atomic force microscopy; format: functional, cell-based
Lysobacter enzymogenes [36] = assay: Induction of drug efflux pumps gene expression in Lysobacter enzymogenes YC36 assessed as increase in QseB expression at 2 ug/ml by genome-wide transcription profiling assay; format: functional
Lysobacter enzymogenes [37] = assay: Bactericidal activity against Lysobacter enzymogenes YC36 at 2 ug/ml in presence of 5 pM QseC inhibitor LED209; format: functional
[38] = test system: Pseudoalteromonas antarctica; assay: Bactericidal activity against Pseudoalteromonas antarctica at 2 ug/ml in presence of 5 pM QseC inhibitor LED209; format: functional, organism-based
Lipid bilayer = assay: Induction of membrane lysis in LUVs composed of Escherichia coli lipid extract filled with 5-carboxyfluorescein incubated in dark for 20 mins by fluorescence based assay
[39] = test system: Stenotrophomonas maltophilia; assay: Bactericidal activity against Stenotrophomonas maltophilia at 2 ug/ml in presence of 5 pM QseC inhibitor LED209; format: functional, organism-based
Lysobacter enzymogenes [40] = assay: Induction of drug efflux pumps gene expression in Lysobacter enzymogenes YC36 assessed as increase in ftsX expression at 2 ug/ml by genome-wide transcription profiling assay; format: functional
Lysobacter enzymogenes [41] = assay: Bactericidal activity against Lysobacter enzymogenes YC36 at 10 ug/ml; format: functional
Lysobacter enzymogenes [42] = assay: Induction of drug efflux pumps gene expression in Lysobacter enzymogenes YC36 assessed as increase in QseC expression at 2 ug/ml by genome-wide transcription profiling assay; format: functional
Lysobacter enzymogenes [43] = assay: Bactericidal activity against Lysobacter enzymogenes YC36 with delta qseC mutant; format: functional
Lysobacter enzymogenes [44] = assay: Induction of drug efflux pumps gene expression in Lysobacter enzymogenes YC36 assessed as increase in yceL expression at 2 ug/ml by genome-wide transcription profiling assay; format: functional
Lysobacter enzymogenes [45] = assay: Germicidal activity against Lysobacter enzymogenes YC36 at 5 to 10 pM; format: functional
[46] = Toxicity in human erythrocytes assessed as induction of hemolysis at 16 ug/ml incubated for 1 hr by spectrometry; format: cell-based, Erythrocyte; settings: read-out: Activity
[47] = Stability in human plasma assessed as parent compound remaining at […] measured after 6 hrs by HPLC analysis; format: ADME, cell-free; settings: read-out: Stability

COLISTIN
MIC (Enterococcus faecium [1]): > 128 µg/mL
MIC (Escherichia coli [2]): 2 µg/mL
MIC (Escherichia coli [3]): 2 µg/mL
MIC (Staphylococcus aureus [4]): > 128 µg/mL
MIC (Staphylococcus aureus [5]): > 128 µg/mL
MIC (Acinetobacter baumannii [6]; ATCC 19606 = CIP 70.34 = JCM 6841): 4 µg/mL
MIC (Staphylococcus aureus [7]): > 128 µg/mL
MIC (Klebsiella pneumoniae [8]): 2 µg/mL
MIC (Escherichia coli [9]): 2 µg/mL
MIC (Klebsiella pneumoniae [10]): 2 µg/mL
MIC (Pseudomonas aeruginosa [11]): 4 µg/mL
MIC (Enterobacter cloacae): 4 µg/mL
MIC (Bacillus subtilis [12]): 16 µg/mL
MIC (Pseudomonas aeruginosa [13]): 4 µg/mL

CC[C@H](C)[C@@H]1NC(=O)CNC(=O)[C@H](CCCNC(=N)N)NC(=O)[C@H](Cc2ccc(O)cc2)NC(=O)[C@@H]2CSSC[C@H](NC1=O)C(=O)N[C@@H](Cc1ccc(O)cc1)C(=O)N[C@@H](CCCNC(=N)N)C(=O)N[C@@H](CCCNC(=N)N)C(=O)N[C@H](C(=O)N[C@@H](CCCNC(=N)N)C(N)=O)CSSC[C@H](NC(=O)[C@H](Cc1c[nH]c3ccccc13)NC(=O)[C@@H](N)CCCCN)C(=O)N[C@@H](Cc1ccccc1)C(=O)N[C@@H](CCCNC(=N)N)C(=O)N[C@@H](C(C)C)C(=O)N2
Activity (Erythrocyte [14]): Toxic
MIC (Enterococcus faecium [1]; ATCC 29212, 18 h): 8 µg/mL (≈ 3.53 µM)
MIC (Escherichia coli [2]; ATCC 25923, 18 h): 2 to 4 µg/mL (≈ 0.883 to 1.77 µM)
MBC [15]: 16 to 64 µg/mL (≈ 7.07 to 28.3 µM)
Activity (L02 [16]): Toxic
Activity (Lysobacter enzymogenes [17]): Dose-dependent effect
MBC (Enterococcus faecium [18]): 16 to 64 µg/mL (≈ 7.07 to 28.3 µM)
fold change (FC) [19]: 2
Activity (Lysobacter enzymogenes [20]): inactive
MIC (Escherichia coli [3]; BAA 2469, 18 h): 8 µg/mL (≈ 3.53 µM)
MIC (Staphylococcus aureus [4]; BAA 41, 18 h): 4 µg/mL (≈ 1.77 µM)
metabolised at 6 h [21]: 100%
MBC (Pseudomonas aeruginosa [22]): 16 to 64 µg/mL (≈ 7.07 to 28.3 µM)
remaining at 2 h [23]: 20%
MBC (Shigella flexneri): 16 to 64 µg/mL (≈ 7.07 to 28.3 µM)
MIC (Staphylococcus aureus [5]; ATCC 29213, 18 h): 8 µg/mL (≈ 3.53 µM)
MBC (Acinetobacter baumannii [24]): 16 to 64 µg/mL (≈ 7.07 to 28.3 µM)
MIC (Acinetobacter baumannii [6]; ATCC 19606 = CIP 70.34 = JCM 6841, 18 h): 8 to 16 µg/mL (≈ 3.53 to 7.07 µM)
Activity (Erythrocyte [25]): Dose-dependent effect
MBC (Bacillus subtilis [26]): 16 to 64 µg/mL (≈ 7.07 to 28.3 µM)
MBC (Staphylococcus aureus [27]): 16 to 64 µg/mL (≈ 7.07 to 28.3 µM)
MIC (Staphylococcus aureus [7]; BAA 44, 18 h): 4 µg/mL (≈ 1.77 µM)
MIC (Klebsiella pneumoniae [8]; BAA 2470, 18 h): 16 µg/mL (≈ 7.07 µM)
MHC (Erythrocyte [28]): 0.25 µg/mL
MIC (Escherichia coli [9]; K-12, 18 h): 4 µg/mL (≈ 1.77 µM)
MIC (Klebsiella pneumoniae [10]; BAA 1144, 18 h): 8 µg/mL (≈ 3.53 µM)
Activity (L02 [29]): Non-Toxic
MIC (Pseudomonas aeruginosa [11]; BAA 2108, 18 h): 8 µg/mL (≈ 3.53 µM)
MIC (Enterobacter cloacae; BAA 1143, 18 h): 8 µg/mL (≈ 3.53 µM)
MIC (Bacillus subtilis [12]; Bacillus subtilis, 168, 18 h): 4 µg/mL (≈ 1.77 µM)
MBC (Escherichia coli [30]): 16 to 64 µg/mL (≈ 7.07 to 28.3 µM)
MIC (Pseudomonas aeruginosa [13]; ATCC 27853, 18 h): 4 to 8 µg/mL (≈ 1.77 to 3.53 µM)

CC[C@H](C)[C@H]1NC(=O)CNC(=O)[C@@H](CCCNC(=N)N)NC(=O)[C@@H](Cc2ccc(O)cc2)NC(=O)[C@H]2CSSC[C@@H](NC1=O)C(=O)N[C@H](Cc1ccc(O)cc1)C(=O)N[C@H](CCCNC(=N)N)C(=O)N[C@H](CCCNC(=N)N)C(=O)N[C@@H](C(=O)N[C@H](CCCNC(=N)N)C(N)=O)CSSC[C@@H](NC(=O)[C@@H](Cc1c[nH]c3ccccc13)NC(=O)[C@H](N)CCCCN)C(=O)N[C@H](Cc1ccccc1)C(=O)N[C@H](CCCNC(=N)N)C(=O)N[C@H](C(C)C)C(=O)N2
Activity (Lysobacter enzymogenes [31]): inactive
Activity (Lysobacter enzymogenes [32]): Active
Activity (Lysobacter enzymogenes [17]): Dose-dependent effect
Activity (Lysobacter enzymogenes [33]): Active
Activity (Lysobacter enzymogenes [20]): Active
Activity (Lysobacter enzymogenes [34]): Active
Activity (Lysobacter enzymogenes [35]): Active
Activity (Lysobacter enzymogenes [36]): Active
Activity (Lysobacter enzymogenes [37]): Active
Activity [38]: Active
Activity (Lipid bilayer): Dose-dependent effect
Activity [39]: Active
Activity (Lysobacter enzymogenes [40]): Active
Activity (Lysobacter enzymogenes [41]): inactive
Activity (Lysobacter enzymogenes [42]): Active
Activity (Lysobacter enzymogenes [43]): Active
Activity (Lysobacter enzymogenes [44]): Active

O=S(=O)(Nc1ccccc1)c1ccc(NC(=S)Nc2ccccc2)cc1
Activity (Lysobacter enzymogenes [45]): inactive

CC[C@@H](C)[C@H]1NC(=O)CNC(=O)[C@@H](CCCNC(=N)N)NC(=O)[C@@H](Cc2ccc(O)cc2)NC(=O)[C@H]2CSSC[C@@H](NC1=O)C(=O)N[C@H](Cc1ccc(O)cc1)C(=O)N[C@H](CCCNC(=N)N)C(=O)N[C@H](CCCNC(=N)N)C(=O)N[C@@H](C(=O)N[C@H](CCCNC(=N)N)C(N)=O)CSSC[C@@H](NC(=O)[C@@H](Cc1c[nH]c3ccccc13)NC(=O)[C@H](N)CCCCN)C(=O)N[C@H](Cc1ccccc1)C(=O)N[C@H](CCCNC(=N)N)C(=O)N[C@H](C(C)C)C(=O)N2
Activity (Erythrocyte [14]): Toxic
Activity (L02 [16]): Toxic
hemolysis at 1 h, 16 ug/ml [46]: 10%
remaining at 2 h [23]: > 80%
Activity (L02 [29]): Non-Toxic
remaining at 6 h [47]: 20%
